US7129080B2 (priority 2001, dated 2006)
Converted amounts (≈) assume the structure as drawn. Counter-ions that a name gives are not always drawn. Like-named read-outs stand apart in the source and are kept apart here.

How the values were obtained:
prion model [1] = experiment: organism not typed; format: cell-based
prion model [2] = format: biochemical
prion model [3] = format: cell-based; settings: ethylene oxide 600 mg/L, 18 mins, initial count 8.5

Structure (SMILES)	concentration showing at least some effect on growth of the prion model (MIC test) (prion model [1])	activity at inhibiting the growth of the prion model in culture media (prion model [1])	further results
Cl [HCl]	~0.1 N		
[Mn+2] [Manganese]	~100 mg/L	measurable activity	
[Na+].[OH-] [NaOH, sodium hydroxide]	~0.01 N	effective	
CC(=O)OO [Peracetic acid]			breakdown of the protein (prion model [2]): break down the protein to a form which is inactive; MIC (prion model [1]; read-out: concentration showing at least some effect on growth of the prion model (MIC test)): ~600 µg/mL (≈ 7.89 mM)
C1CO1 [ethylene oxide]			Prion count in Logs (prion model [3]; 54° C., 40% RH): 4.7 Logs; Prion count in Logs (prion model [3]; 70° C., 100% RH): 5.0 Logs
NC[C@@H]1O[C@H](O[C@H]2[C@@H](O)[C@H](O[C@@H]3[C@@H](O)[C@H](N)C[C@H](N)[C@H]3O[C@H]3O[C@H](CN)[C@@H](O)[C@H](O)[C@H]3N)O[C@@H]2CO)[C@H](N)[C@@H](O)[C@@H]1O.O=S(=O)(O)O [neomycin sulphate]	~125 mg/L	measurable activity	
O=[N+]([O-])[O-].[Ag+] [silver nitrate]	~30 mg/L	measurable activity	
